According to ChEMBL document CHEMBL3885881, “DrugMatrix”:

Species on record: Rattus norvegicus
Experiment: DrugMatrix - Regimen: Daily Repeat
Assay type: toxicity, organism-based, Sprague-Dawley
Set-up: regimen Daily Repeat, gender Male, age 6-8 weeks
Conditions: in vivo, po, route oral GAVAGE, vehicle 100 % WATER; for ABSOLUTE BASOPHIL / ABSOLUTE EOSINOPHIL / ABSOLUTE LYMPHOCYTE / ABSOLUTE MONOCYTE / ABSOLUTE SEGMENTED NEUTROPHIL / BASOPHIL / EOSINOPHIL / ERYTHROCYTE COUNT / HEMATOCRIT / HEMOGLOBIN / LEUKOCYTE COUNT / LYMPHOCYTE / MEAN CORPUSCULAR HEMOGLOBIN / MEAN CORPUSCULAR HEMOGLOBIN CONCENTRATION / MEAN CORPUSCULAR VOLUME / MONOCYTE / NEUTROPHIL / NUCLEATED RED BLOOD CELLS / PLATELET COUNT: tissue Blood; for ALANINE AMINOTRANSFERASE / ALBUMIN / ALKALINE PHOSPHATASE / ASPARTATE AMINOTRANSFERASE / BLOOD UREA NITROGEN / CARBON DIOXIDE / CHLORIDE / CHOLESTEROL / CREATINE PHOSPHOKINASE / CREATININE / GLUCOSE / LACTATE DEHYDROGENASE / LIPASE / PHOSPHORUS / SODIUM / TOTAL BILIRUBIN / TOTAL PROTEIN / URIC ACID: tissue Plasma
[1] = 100 mg/kg, 120 h, dose level Low, time 5 day
[2] = 500 mg/kg, 72 h, dose level High, time 3 day
[3] = 500 mg/kg, 120 h, dose level High, time 5 day

With `CCN(CC)C(=S)SSC(=S)N(CC)CC` the “ABSOLUTE BASOPHIL” value [1] was 0 CELLS/uL, the “ABSOLUTE EOSINOPHIL” value [1] was 0 CELLS/uL and the “ABSOLUTE LYMPHOCYTE” value [1] was 13796 CELLS/uL. For the same compound, the “ABSOLUTE MONOCYTE” value [1] was 155.67 CELLS/uL, the “ABSOLUTE SEGMENTED NEUTROPHIL” value [1] was 1615 CELLS/uL and the BASOPHIL [1] was 0%. For the same compound, the EOSINOPHIL [1] was 0%, the “ERYTHROCYTE COUNT” value [1] was 5.47 x10E6/uL and the HEMATOCRIT [1] was 33.87%. The HEMOGLOBIN [1] was 13.53 G/DL, the “LEUKOCYTE COUNT” value [1] was 15.57 x10E3/uL and the LYMPHOCYTE [1] was 89%. For the same compound, the “MEAN CORPUSCULAR HEMOGLOBIN” value [1] was 24.8 pg, the “MEAN CORPUSCULAR HEMOGLOBIN CONCENTRATION” value [1] was 39.97 G/DL and the “MEAN CORPUSCULAR VOLUME” value [1] was 62 fL. The MONOCYTE [1] was 1%, the NEUTROPHIL [1] was 10% and the “NUCLEATED RED BLOOD CELLS” value [1] was 0 /100WBC. The “PLATELET COUNT” value [1] was 1356.33 x10E3/uL, the “ALANINE AMINOTRANSFERASE” value [1] was 42.67 u/L and the ALBUMIN [1] was 4.1 G/DL. The “ALKALINE PHOSPHATASE” value [1] was 265.33 u/L, the “ASPARTATE AMINOTRANSFERASE” value [1] was 70 u/L and the “BLOOD UREA NITROGEN” value [1] was 15.33 mg/dL. The “CARBON DIOXIDE” value [1] was 31.67 mmol/L, the CHLORIDE [1] was 102.67 MEQ/L and the CHOLESTEROL [1] was 83.67 mg/dL. For the same compound, the “CREATINE PHOSPHOKINASE” value [1] was 216.33 u/L, the CREATININE [1] was 0.15 mg/dL and the GLUCOSE [1] was 123.67 mg/dL. The “LACTATE DEHYDROGENASE” value [1] was 231 u/L, the LIPASE [1] was 11.33 u/L and the PHOSPHORUS [1] was 11.73 mg/dL. The SODIUM [1] was 145.07 MEQ/L, the “TOTAL BILIRUBIN” value [1] was 0.2 mg/dL and the “TOTAL PROTEIN” value [1] was 6 G/DL. For the same compound, the “URIC ACID” value [1] was 1.37 mg/dL, the “ABSOLUTE BASOPHIL” value [2] was 0 CELLS/uL and the “ABSOLUTE EOSINOPHIL” value [2] was 32 CELLS/uL. For the same compound, the “ABSOLUTE LYMPHOCYTE” value [2] was 16158.67 CELLS/uL, the “ABSOLUTE MONOCYTE” value [2] was 362.67 CELLS/uL and the “ABSOLUTE SEGMENTED NEUTROPHIL” value [2] was 2246.67 CELLS/uL. The BASOPHIL [2] was 0%, the EOSINOPHIL [2] was 0.33% and the “ERYTHROCYTE COUNT” value [2] was 5.54 x10E6/uL. The HEMATOCRIT [2] was 34.57%, the HEMOGLOBIN [2] was 13.7 G/DL and the “LEUKOCYTE COUNT” value [2] was 18.8 x10E3/uL. The LYMPHOCYTE [2] was 85%, the “MEAN CORPUSCULAR HEMOGLOBIN” value [2] was 24.73 pg and the “MEAN CORPUSCULAR HEMOGLOBIN CONCENTRATION” value [2] was 39.63 G/DL. For the same compound, the “MEAN CORPUSCULAR VOLUME” value [2] was 62.43 fL, the MONOCYTE [2] was 2.33% and the NEUTROPHIL [2] was 12.33%. The “NUCLEATED RED BLOOD CELLS” value [2] was 0 /100WBC, the “PLATELET COUNT” value [2] was 1410.67 x10E3/uL and the “ALANINE AMINOTRANSFERASE” value [2] was 78.33 u/L. The ALBUMIN [2] was 3.87 G/DL, the “ALKALINE PHOSPHATASE” value [2] was 211.67 u/L and the “ASPARTATE AMINOTRANSFERASE” value [2] was 279.33 u/L. For the same compound, the “BLOOD UREA NITROGEN” value [2] was 11.33 mg/dL, the “CARBON DIOXIDE” value [2] was 30.33 mmol/L and the CHLORIDE [2] was 102.33 MEQ/L. The CHOLESTEROL [2] was 124 mg/dL, the “CREATINE PHOSPHOKINASE” value [2] was 747.67 u/L and the CREATININE [2] was 0.15 mg/dL. The GLUCOSE [2] was 121.33 mg/dL, the “LACTATE DEHYDROGENASE” value [2] was 433.33 u/L and the LIPASE [2] was 11.33 u/L. For the same compound, the PHOSPHORUS [2] was 10.77 mg/dL, the SODIUM [2] was 143.53 MEQ/L and the “TOTAL BILIRUBIN” value [2] was 0.13 mg/dL. For the same compound, the “TOTAL PROTEIN” value [2] was 5.93 G/DL, the “URIC ACID” value [2] was 1.53 mg/dL and the “ABSOLUTE BASOPHIL” value [3] was 0 CELLS/uL. For the same compound, the “ABSOLUTE EOSINOPHIL” value [3] was 134 CELLS/uL, the “ABSOLUTE LYMPHOCYTE” value [3] was 14987.33 CELLS/uL and the “ABSOLUTE MONOCYTE” value [3] was 0 CELLS/uL. For the same compound, the “ABSOLUTE SEGMENTED NEUTROPHIL” value [3] was 1378.67 CELLS/uL, the BASOPHIL [3] was 0% and the EOSINOPHIL [3] was 0.67%. For the same compound, the “ERYTHROCYTE COUNT” value [3] was 4.95 x10E6/uL, the HEMATOCRIT [3] was 30.57% and the HEMOGLOBIN [3] was 12.3 G/DL. For the same compound, the “LEUKOCYTE COUNT” value [3] was 16.5 x10E3/uL, the LYMPHOCYTE [3] was 90.33% and the “MEAN CORPUSCULAR HEMOGLOBIN” value [3] was 24.83 pg. The “MEAN CORPUSCULAR HEMOGLOBIN CONCENTRATION” value [3] was 40.2 G/DL, the “MEAN CORPUSCULAR VOLUME” value [3] was 61.67 fL and the MONOCYTE [3] was 0%. The NEUTROPHIL [3] was 9%, the “NUCLEATED RED BLOOD CELLS” value [3] was 0 /100WBC and the “PLATELET COUNT” value [3] was 1031.33 x10E3/uL. The “ALANINE AMINOTRANSFERASE” value [3] was 55 u/L, the ALBUMIN [3] was 3.83 G/DL and the “ALKALINE PHOSPHATASE” value [3] was 254 u/L. For the same compound, the “ASPARTATE AMINOTRANSFERASE” value [3] was 134.33 u/L, the “BLOOD UREA NITROGEN” value [3] was 16.33 mg/dL and the “CARBON DIOXIDE” value [3] was 27 mmol/L. The CHLORIDE [3] was 102.67 MEQ/L, the CHOLESTEROL [3] was 109 mg/dL and the “CREATINE PHOSPHOKINASE” value [3] was 292.67 u/L. The CREATININE [3] was 0.16 mg/dL, the GLUCOSE [3] was 155.33 mg/dL and the “LACTATE DEHYDROGENASE” value [3] was 217.33 u/L. The LIPASE [3] was 11.33 u/L, the PHOSPHORUS [3] was 12 mg/dL and the SODIUM [3] was 141.9 MEQ/L. The “TOTAL BILIRUBIN” value [3] was 0.17 mg/dL, the “TOTAL PROTEIN” value [3] was 6 G/DL and the “URIC ACID” value [3] was 1.6 mg/dL.
